Here are results for 13 compounds from ChEMBL document CHEMBL1201862, “PubChem BioAssay data set” (2004).

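Values below derive from 48-hour exposures of cells grown in 96-well plates, with endpoints linearly interpolated between the two concentrations bracketing the appropriate inhibition level. The concentration for 50% growth inhibition is given as GI50.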 Active and inactive are the calls of the source. No stated cut-off is given here; in the data, active = GI50 up to about 1.1 µM and inactive = higher.

Among the test systems are HCT-15; HOP-62; HT-29; Hs-578T; IGROV-1; K562; MDA-MB-231; NCI-H226; NCI-H23; OVCAR-3; OVCAR-4; OVCAR-5; OVCAR-8; PC-3; SF-539; SK-MEL-2; SNB-19; TK-10; UACC-257; M19-MEL.
What all share (test): NCI anticancer screen, dose series, 48 h

With `Cc1ccc(S(=O)(=O)Oc2cc(N)c3c(n2)CCC3)cc1`, the GI50 with HCT-15 is greater than 100 µM; in the test on HOP-62, > 100 µM (inactive); with HT-29 it was 48.3 µM (inactive); with Hs-578T it was > 100 µM (inactive); in the test with IGROV-1 it was > 100 µM (inactive); in the test with K562 it was 67 µM (inactive). The GI50 in the test with MDA-MB-231 is > 100 µM (inactive); in the test with NCI-H226, 36.8 µM (inactive); in the test with NCI-H23, > 100 µM (inactive); in the test with OVCAR-3 it was 37.9 µM (inactive); in the test on OVCAR-4, 34.4 µM (inactive); in the test with OVCAR-5, > 100 µM (inactive). The GI50 in the test with OVCAR-8, in the test with PC-3, in the test on SF-539, in the test with SK-MEL-2, with SNB-19 and with TK-10 was > 100 µM (inactive) in each case. For the same compound, the GI50 in the test on UACC-257 is 46.2 µM (inactive).
As to `CC(O)c1ccc(C(O)/C(=N\NC(=O)c2ccncc2)c2nc3ccc([N+](=O)[O-])cc3nc2O)cc1` (configuration not stated), the GI50 in the test with HCT-15 is 34.8 µM; in the test with HOP-62 it was > 100 µM (inactive); in the test with HT-29, 96.2 µM (inactive); with IGROV-1, > 100 µM (inactive); in the test on K562, 40.8 µM (inactive); with M19-MEL, > 100 µM (inactive). Moreover, the GI50 in the test on NCI-H226, in the test on NCI-H23, in the test on OVCAR-3, in the test with OVCAR-4, in the test with OVCAR-5 and in the test on OVCAR-8 was > 100 µM (inactive) throughout. Further, the GI50 with SF-539 was 37 µM (inactive); in the test with SNB-19, > 100 µM (inactive); in the test on UACC-257 it was > 100 µM (inactive).
For the compound `CC(C)C1CC2C(=O)N(c3ccccc3)C(=O)C2c2[nH]c3ccccc3c21` (configuration not stated), the GI50 in the test on HCT-15 was 14.6 µM; in the test on HOP-62, 29.2 µM (inactive); in the test on HT-29, 22.9 µM (inactive); in the test with IGROV-1, 34.5 µM (inactive); in the test on K562, 4.85 µM (inactive); in the test on M19-MEL it was 56.4 µM (inactive). Besides, the GI50 was 16.2 µM (inactive) in the test on NCI-H226; 19.5 µM (inactive) in the test with NCI-H23; 5.78 µM (inactive) with OVCAR-3; 2.32 µM (inactive) in the test on OVCAR-4; > 100 µM (inactive) in the test on OVCAR-5; 7.24 µM (inactive) with OVCAR-8. Moreover, the GI50 in the test with SF-539 was 13.8 µM (inactive); in the test with SK-MEL-2, 35.2 µM (inactive); with TK-10 it was 23.1 µM (inactive); with UACC-257 it was 34.6 µM (inactive).
Turning to `COc1ccc(C(=O)C(c2ccc(OC)cc2)C2(O)C(=O)Nc3c2ccc(Cl)c3C)cc1` (configuration not stated), the GI50 with HCT-15 was greater than 100 µM; in the test on HOP-62 it was > 100 µM (inactive); in the test on HT-29, > 100 µM (inactive); with IGROV-1 it was > 100 µM (inactive); in the test on K562, > 100 µM (inactive); with M19-MEL, > 100 µM (inactive). The GI50 with NCI-H226, in the test on NCI-H23, in the test with OVCAR-3, in the test with OVCAR-4, in the test with OVCAR-5 and in the test with OVCAR-8 was > 100 µM (inactive) in each case. The GI50 was > 100 µM (inactive) in the test on SK-MEL-2, > 100 µM (inactive) in the test with SNB-19, > 100 µM (inactive) in the test on TK-10 and 92.9 µM (inactive) in the test on UACC-257.
As to `O=C(NCc1ccncc1)C1COc2cc(-c3cc(=O)c4ccccc4o3)ccc2O1` (configuration not stated), the GI50 in the test with HCT-15 was greater than 100 µM; with HOP-62 it was > 100 µM (inactive); in the test on HT-29, > 100 µM (inactive); with IGROV-1 it was > 100 µM (inactive); in the test with K562 it was > 100 µM (inactive); in the test on M19-MEL, > 100 µM (inactive). For the same compound, the GI50 in the test on NCI-H23, in the test with OVCAR-3, with OVCAR-4, in the test with OVCAR-5, in the test with OVCAR-8 and in the test on SF-539 was > 100 µM (inactive) in each case. Also, the GI50 in the test with SK-MEL-2, in the test on TK-10 and in the test on UACC-257 was > 100 µM (inactive) throughout.
Turning to `N#CC(/C(=N\NC(=O)c1ccncc1)C(=O)Nc1ccc([N+](=O)[O-])cc1[N+](=O)[O-])c1nc(-c2ccc(Br)cc2)cs1` (configuration not stated), the GI50 in the test with HCT-15 is greater than 100 µM; in the test on HOP-62, > 100 µM (inactive); in the test with IGROV-1 it was > 100 µM (inactive); with K562, > 100 µM (inactive); in the test with M19-MEL it was > 100 µM (inactive); with OVCAR-3, > 100 µM (inactive). For the same compound, the GI50 in the test with OVCAR-4, in the test on OVCAR-5, in the test with OVCAR-8, in the test on SF-539, in the test on SK-MEL-2 and in the test on SNB-19 was > 100 µM (inactive) in each case. Besides, the GI50 in the test on TK-10 and in the test with UACC-257 was > 100 µM (inactive) throughout.
As for `COC1(OC)CC2C(=O)N(Cc3ccccc3)C1C=C2S(=O)(=O)c1ccccc1` (configuration not stated), the GI50 in the test with HOP-62 was 38.8 µM (inactive); with HT-29, 18.5 µM (inactive); in the test with IGROV-1, 32.9 µM (inactive); with K562, 22.5 µM (inactive); with M19-MEL, 16 µM (inactive); with NCI-H226, 27.9 µM (inactive). Besides, the GI50 in the test on NCI-H23 was 18 µM (inactive); in the test with OVCAR-3, 14.8 µM (inactive); in the test with OVCAR-4, 20.5 µM (inactive); with OVCAR-8, 17.9 µM (inactive); in the test on SF-539, 17 µM (inactive); with SNB-19 it was 24 µM (inactive). In addition, the GI50 in the test with TK-10 was 25.1 µM (inactive); in the test with UACC-257, 16.9 µM (inactive).
As to `CC(=O)Nc1ccc(-c2nnc(SCC(=O)Nc3ccc([N+](=O)[O-])cc3)o2)cc1`, the GI50 in the test with HCT-15 is 12.9 µM; with HOP-62 it was 26.3 µM (inactive); in the test on HT-29, 13.4 µM (inactive); in the test on IGROV-1, 11 µM (inactive); with K562, 36.4 µM (inactive); in the test with M19-MEL it was 13.5 µM (inactive). Moreover, the GI50 was 15.7 µM (inactive) in the test with NCI-H226; 12.2 µM (inactive) in the test with NCI-H23; 14.5 µM (inactive) with OVCAR-3; 13.4 µM (inactive) in the test on OVCAR-4; 19.8 µM (inactive) in the test with OVCAR-5; 14.6 µM (inactive) with OVCAR-8. In addition, the GI50 in the test with SF-539 is 24.3 µM (inactive); in the test on SK-MEL-2, 14.3 µM (inactive); with TK-10, 14.6 µM (inactive); with UACC-257, 12.1 µM (inactive).
Regarding `COS(=O)c1cc(Cl)cc(Cl)c1OC(=O)CSSCC(=O)Oc1c(Cl)cc(Cl)cc1S(=O)OC` (configuration not stated), the GI50 with HCT-15 is 14.4 µM; with HOP-62, > 10 µM (inactive); in the test with HT-29 it was 30.4 µM (inactive); with IGROV-1, 19.4 µM (inactive); in the test on K562, 20.4 µM (inactive); with M19-MEL it was 20 µM (inactive). In addition, the GI50 in the test with NCI-H23 was 11.2 µM (inactive); with OVCAR-3 it was 23.9 µM (inactive); with OVCAR-4, 19.3 µM (inactive); in the test with OVCAR-5 it was 16.7 µM (inactive); in the test on OVCAR-8, 20.5 µM (inactive); with SF-539, 13.8 µM (inactive). The GI50 in the test with SK-MEL-2 is 17.3 µM (inactive); in the test with SNB-19, 5.24 µM (inactive); in the test on TK-10 it was 34.5 µM (inactive); in the test with UACC-257 it was 23.2 µM (inactive).
Regarding `CC(=O)Nc1ccccc1-c1nc2ccccc2nc1-c1ccccc1`, the GI50 with HCT-15 was greater than 100 µM; in the test on HOP-62, > 100 µM (inactive); in the test with HT-29 it was > 100 µM (inactive); in the test on IGROV-1 it was > 100 µM (inactive); with K562 it was > 100 µM (inactive); in the test on M19-MEL, > 100 µM (inactive). In addition, the GI50 in the test with NCI-H23, in the test on OVCAR-3, in the test with OVCAR-4, in the test with OVCAR-8, in the test with SF-539 and with SK-MEL-2 was > 100 µM (inactive) throughout. For the same compound, the GI50 in the test with SNB-19 and with UACC-257 was > 100 µM (inactive) each time.
With `N#C/C(=C\c1ccccc1F)C(=O)c1ccccc1`, the GI50 in the test with HCT-15 was greater than 100 µM; in the test on HOP-62, > 100 µM (inactive); in the test with HT-29 it was > 100 µM (inactive); in the test on IGROV-1, > 100 µM (inactive); in the test on K562, > 100 µM (inactive); in the test with M19-MEL, > 100 µM (inactive). Moreover, the GI50 with NCI-H23, in the test with OVCAR-3, in the test with OVCAR-4, in the test with OVCAR-5, with OVCAR-8 and in the test on SF-539 was > 100 µM (inactive) in each case. For the same compound, the GI50 in the test with SK-MEL-2, in the test with SNB-19, with TK-10 and in the test with UACC-257 was > 100 µM (inactive) throughout.
For the compound `CC(C)(C)C(=O)OCC(COC(=O)C(C)(C)C)[N+](=O)[O-]`, the GI50 in the test with HCT-15 was greater than 100 µM; with HT-29, > 100 µM (inactive); in the test on IGROV-1, > 100 µM (inactive); in the test with K562 it was 47.6 µM (inactive); in the test with M19-MEL, > 100 µM (inactive); in the test with NCI-H226, > 100 µM (inactive). Also, the GI50 with NCI-H23, in the test on OVCAR-3, in the test with OVCAR-4, with OVCAR-5, in the test with OVCAR-8 and in the test on SF-539 was > 100 µM (inactive) each time. Also, the GI50 with SK-MEL-2, in the test with SNB-19, in the test with TK-10 and with UACC-257 was > 100 µM (inactive) each time.
Take `CC(=O)OCC1OC(n2c(-c3ccc(N)cc3)cc(-c3ccco3)c(C#N)c2=O)C(OC(C)=O)C(OC(C)=O)C1OC(C)=O` (configuration not stated): the GI50 is greater than 50 µM with HCT-15; > 50 µM (inactive) with HOP-62; > 50 µM (inactive) with HT-29; 45 µM (inactive) in the test with IGROV-1; 18.7 µM (inactive) in the test on M19-MEL; 26 µM (inactive) with NCI-H23. Moreover, the GI50 is > 50 µM (inactive) with OVCAR-3; 38.5 µM (inactive) with OVCAR-4; > 50 µM (inactive) in the test on OVCAR-5; 5.87 µM (inactive) in the test on OVCAR-8; 7.62 µM (inactive) in the test on SF-539; 22.4 µM (inactive) with SK-MEL-2. Also, the GI50 with SNB-19, in the test on TK-10 and in the test with UACC-257 was > 50 µM (inactive) in each case.
